The values that follow come from patent publication US8513409B2, “Introverted CB[n] compounds” (University of Maryland, priority 2005, dated 2013).

The conditions of data set [1]: conc. HCl 100° C., reported by Day and co-workers; cited from earlier work.
Data set [2] can be described thus: Solubility of CB[n] in water, aqueous MeOH, HCl and Na2SO4 solutions. The class given is physicochemical. The note with it: for solubility in 50% aqueous MeOH solution (v/v): 50% aqueous MeOH (v/v). Here is the method: CB[5]. […] By washing the crude solids repeatedly with large volumes of water a mixture of CB[5] and CB[7] was isolated. […] The solubility of CB[7] is less than 4 mg/mL in this solution. By extracting the solid mixture of CB[5] and CB[7] with 50% aq. MeOH CB[5] is separated from CB[7].
CB[8]. […] By washing the crude mixture of CB[6], CB[8], CB[5]@CB[10], introverted CB[6], and CB[8] with 3 M HCl CB[8] is isolated as an insoluble solid.
Introverted CB[6]. […] Na2SO4 which allows it to be isolated as an insoluble solid by washing and filtration.
Subsequent purification. The separation of each component (CB[5], CB[6], CB[7], CB[8], and iCB[6]) from Crop 1 and Crop 2 was enabled due to their differential solubility in HCl solutions. • CB[5] and CB[7]. […] By washing the crude mixture of CB[6], Cb[8], and iCB[6] with 3.5 M HC1 it is possible to isolate Cb[8] as an insoluble solid. • iCB[6] and CB[6]. CB[6] and iCB[6] were separated by fractional crystallization from different concentration HC1 solutions. For example, the initial CB[6]/iCB[6] mixture was recrystallized from a minimum volume of conc. HC1. The filtrate is enriched in iCB[n]; adding the filtrate to MeOH gives the precipitate which is filtered and dried. The solid now enriched in iCB[6] is recrystallized from 17.5% HC1 which gives CB[6] as a solid and filtrate further enriched in iCB[6]. In this manner, the ratio of iCB[6];CB[6] is raised to ≈80:20. At this point, the mixture is dissolved in a minimum of conc. HC1. To this solution is added enough H2N(CH2)6NH2 to complex all of the CB[6] (≈25%). This solution is then diluted 5-fold with H20. The precipitate is isolated by centrifugation and washed several times with H2O which yields iCB[6] as a white solid in 2% overall yield.

Data set [3] is described as follows: 1H NMR competition of CB[6] and i-CB[6] (1:1) for guest 1. The note with it: slight excess of 1 added to CB[6] and i-CB[6] (1:1). The class given is binding. Here is the method: (§1) FIG. 6 illustrates ^1HNMR spectra recorded for: a)) i-CB[6], CB[6] and 1 in a ratio of 1:1:2 (0.5M NaCl), and b) i-CB[7], 1 and 2 in a ratio of 1:1:1 (500 MHz, D2O), RT).
(§2) Because of their smaller cavities and more open portals i-CB[6] and i-CB[7] bind most guest molecules less tightly than their CB[n] counterparts do. For example, when a light excess of 1 is added to a solution containing CB[6] and i-CB[6] Alkyl ammonium ions such as 2 are known to bind tightly to CB[6] with values of Ka in the μM range. In contrast, 2 bind less strongly to i-CB[6] […] Similarly, i-CB[7] retains the ability to bind to guests commonly bound to CB[7]1,8 (e.g. 1.2, and (ferrocenemethyl)trimethylammonium ion (3)) but with lower affinity and higher kinetic liability. The association constants (Ka) for the guests 1, 2, and 3 with i-CB[7] measured by isothermal titration calorimetry (ITC) are (9±1)×10^6 M^−1, (8.8±0.9)×10^5 M^−1, and (2.2±0.1)×10^6 M^−1, respectively, which are 2 to 6 order of magnitude lower than those with CB[7].

The nature of data set [4]: Stability of CB[n] and i-CB[n] on heating in acid (product resubmission). The note with it: purified compound heated in conc. DCl. The class given is physicochemical. From the text: The fact that the isomerization of methylene bridged glycoluril dimmers follows mechanism 3 is not only useful in the synthesis of our compounds, but is important for the tailored synthesis of CB[n] and its derivatives. For example, Day and co-workers have recently shown that heating purified CB[8] in conc. […] (Scheme 3). In contrast, pure CB[5], CB[6], and CB[7] are stable under these conditions. […] This type of reaction would likely follow a pathway related to mechanism 1. […] In aqueous acid, it is likely that H2O can compete with the internal N and O nucleophiles of mechanism 3 for the capture of 19 (Scheme 2), effectively forcing fragmentation of the methylene bridges by a variation of mechanism 1. In the absence of competing nucleophiles, under anhydrous acidic conditions, CB[n] (n>8) and derivatives display enhanced stability. This facilitates the preparation of higher CB[n] compounds in a controllable manner when using anhydrous acidic conditions where water-sensitive functional groups are present. If such groups are not present acidic aqueous conditions may be used.
By “anhydrous acidic conditions,” we mean that in initial attempts “standard conditions” (ClCH2CH2Cl, anh. PTSA, reflux) are used, and if solubility problems occur then neat anhydrous PTSA (m.p. 38° C.) and/or CH3SO3H may be used. Based on results, CB[8] is stable to these conditions as depicted in Scheme 3. […]

Data set [5] in a line: Isothermal titration calorimetry of i-CB[7] with guest 3. The class given is binding. The note with it: ITC, water, 30° C. Here is the method: FIG. 23 is a thermogram (top) and binding isotherm (bottom) of (ferrocenemethyl) trimethyl ammonium in complexing with i-CB[7] at 303K.
Because of their smaller cavities and more open portals i-CB[6] and i-CB[7] bind most guest molecules less tightly than their CB[n] counterparts do. For example, when a light excess of 1 is added to a solution containing CB[6] and i-CB[6] Alkyl ammonium ions such as 2 are known to bind tightly to CB[6] with values of Ka in the μM range. In contrast, 2 bind less strongly to i-CB[6] […] The association constants (Ka) for the guests 1, 2, and 3 with i-CB[7] measured by isothermal titration calorimetry (ITC) are (9±1)×10^6 M^−1, (8.8±0.9)×10^5 M^−1, and (2.2±0.1)×10^6 M^−1, respectively, which are 2 to 6 order of magnitude lower than those with CB[7].
(§3) General. […] Melting points were measured on a Meltemp apparatus in open capillary tubes and are uncorrected. IR spectra were recorded on a Nicolet Magna or on a Perkin Elmer Spectrum GX FT-IR spectrophotometers as KBr pellets and are reported in cm^−1. NMR spectra were measured on a Bruker AM400 or on a Bruker DRX500 spectrometers operating at 400 or 500 MHz for ^1H and 100 or 125 MHz for ^13C. […] The formation constants for the inclusion of several guests in iCB[7] were determined by isothermal titration calorimetry using a VP-ITC instrument from MicroCal. […]
In general terms: Isothermal titration calorimetry measures the heat released or taken up as one component is titrated into another.

A short description of data set [6]: Isothermal titration calorimetry of i-CB[7] with guest 1. The class given is binding. To be noted: ITC, water, 30° C. Here is the method:
as §2, §3

A short description of data set [7]: 1H NMR competition of guests 1 and 2 for i-CB[7]. The class given is binding. To be noted: 1 and 2 in ratio 1:1:1.
Description: as §1
For example, i-CB[7] binds aromatic guest 1 more strongly than linear aliphatic guest 2. […] Thus, the inverted glycoluril unit modulates guest binding affinity and rates of dissociation, both of which are of critical importance in the creation of CB[n] based molecular machines.

A short description of data set [8]: Isothermal titration calorimetry of i-CB[7] with guest 2. The class given is binding. To be noted: ITC, water, 30° C. As for the experimental part:
as §2, §3

On to `O=C1N2CN3C(=O)N4CN5C(=O)N6CN7C(=O)N8CN9C(=O)N%10CN1C1C2N2CN%11C(=O)N(CN%12C(=O)N(CN%13C(=O)N(CN%14C(=O)N(CN1C2=O)C%10C9%14)C8C7%13)C6C5%12)C4C3%11` (stereo not drawn) [CB[5]], for which the “stability on heating in conc. HCl” value in data set [1] is “stable”. Further, in data set [2], the “solubility in 50% aqueous MeOH solution (v/v)” value was “about 33 mg/mL” and the solubility in water result is recorded as “moderate solubility”.

Consider `O=C1N2CN3C(=O)N4CN5C(=O)N6CN7C(=O)N8CN9C(=O)N%10CN%11C(=O)N%12CN1C1C2N2CN%13C(=O)N(CN%14C(=O)N(CN%15C(=O)N(CN%16C(=O)N(CN%17C(=O)N(CN1C2=O)C%12C%11%17)C%10C9%16)C8C7%15)C6C5%14)C4C3%13` (stereo not drawn) [CB[6]], for which the “share of host that forms a complex with guest 1” value in data set [3] was “almost all”. The “stability on heating in conc. HCl” value in data set [1] is on record as “stable”. Also, the “solubility in 3 M HCl solution” value in data set [2] (3 M HCl) is reported as “appreciable solubility”. The “solubility in 3.5 M HCl solution” value in data set [2] (3.5 M HCl) was “appreciable solubility”.

For `O=C1N2CN3C(=O)N4CN5C(=O)N6CN7C(=O)N8CN9C(=O)N%10CN%11C(=O)N%12CN%13C(=O)N%14CN1C1C2N2CN%15C(=O)N(CN%16C(=O)N(CN%17C(=O)N(CN%18C(=O)N(CN%19C(=O)N(CN%20C(=O)N(CN1C2=O)C%14C%13%20)C%12C%11%19)C%10C9%18)C8C7%17)C6C5%16)C4C3%15` (stereo not drawn) [CB[7]], the “stability on heating in conc. HCl” value in data set [1] was “stable”. In data set [2], the “solubility in 50% aqueous MeOH solution (v/v)” value is “less than 4 mg/mL” and the solubility in water entry is listed as “moderate solubility”.

For the molecule i-CB[7], the “outcome of heating in conc. DCl” value in data set [4] is “a 4:1 mixture of CB[6], and CB[7] was obtained”. In data set [5], the “association constant (Ka) for guest 3” value is “(2.2±0.1)×10^6 M^−1”. The “association constant (Ka) for guest 1” value in data set [6] is on record as “(9±1)×10^6 M^−1”. In data set [7], the “guest preference in presence of 1 equiv 1 and 2” value was “the majority of i-CB[7] forms a complex with 1”. For the same molecule, the “association constant (Ka) for guest 2” value in data set [8] is on record as “(8.8±0.9)×10^5 M^−1”.
